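Method: 48-hour compound exposure of cells in 96-well plates, five concentrations, linear interpolation of endpoints. GI50 marks 50% less growth.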 Activity calls are given as the source filed them. No stated cut-off is given here; in the data, active = GI50 up to about 1.1 µM and inactive = higher.
How the values were obtained:
Assay in all cases: NCI tumour cell line growth inhibition, 48 h
A498 = test system: A498
A549 = test system: A549
ACHN = test system: ACHN
COLO 205 = test system: COLO 205
EKVX = test system: EKVX
HOP-62 = test system: HOP-62
HT-29 = test system: HT-29
Hs-578T = test system: Hs-578T
M14 = test system: M14
MDA-MB-435 = test system: MDA-MB-435
NCI-H23 = test system: NCI-H23
NCI-H522 = test system: NCI-H522
OVCAR-5 = test system: OVCAR-5
PC-3 = test system: PC-3
SF-295 = test system: SF-295
SK-OV-3 = test system: SK-OV-3
SNB-75 = test system: SNB-75
TK-10 = test system: TK-10
UO-31 = test system: UO-31
UACC-62 = test system: UACC-62

COc1c(C)c2nc3ccccc3nc2c2c(O)ccnc12
GI50 (A498): 43.3 µM (inactive)
GI50 (A549): 37.1 µM (inactive)
GI50 (ACHN): 30.1 µM (inactive)
GI50 (COLO 205): 46.1 µM (inactive)
GI50 (EKVX): > 100 µM (inactive)
GI50 (HOP-62): 23.5 µM (inactive)
GI50 (HT-29): 69.7 µM (inactive)
GI50 (Hs-578T): 16 µM (inactive)
GI50 (M14): > 100 µM (inactive)
GI50 (MDA-MB-435): > 100 µM (inactive)
GI50 (NCI-H23): 55.6 µM (inactive)
GI50 (NCI-H522): 71.3 µM (inactive)
GI50 (OVCAR-5): > 100 µM (inactive)
GI50 (PC-3): > 100 µM (inactive)
GI50 (SF-295): 43.2 µM (inactive)
GI50 (SK-OV-3): 75.7 µM (inactive)
GI50 (SNB-75): 7.13 µM (inactive)
GI50 (TK-10): 64.4 µM (inactive)
GI50 (UO-31): > 100 µM (inactive)

COc1cc2nc(-c3c(F)cccc3F)n(Cc3c(F)cccc3F)c2cc1Cc1c(F)cccc1F
GI50 (A498): 3.62 µM (inactive)
GI50 (A549): > 47.8 µM (inactive)
GI50 (ACHN): > 42.6 µM (inactive)
GI50 (COLO 205): > 100 µM (inactive)
GI50 (EKVX): 16.9 µM (inactive)
GI50 (HOP-62): > 100 µM (inactive)
GI50 (HT-29): 3.53 µM (inactive)
GI50 (Hs-578T): > 20.5 µM (inactive)
GI50 (M14): > 24.3 µM (inactive)
GI50 (MDA-MB-435): 8.59 µM (inactive)
GI50 (NCI-H23): > 100 µM (inactive)
GI50 (NCI-H522): 10 µM (inactive)
GI50 (OVCAR-5): > 100 µM (inactive)
GI50 (PC-3): > 100 µM (inactive)
GI50 (SF-295): > 100 µM (inactive)
GI50 (SK-OV-3): > 100 µM (inactive)
GI50 (SNB-75): 2.74 µM (inactive)
GI50 (TK-10): > 100 µM (inactive)
GI50 (UACC-62): 2.64 µM (inactive)
GI50 (UO-31): 9.1 µM (inactive)

CN1CCc2c(sc3ncn(N)c(=N)c23)C1
GI50 (A498): > 100 µM (inactive)
GI50 (A549): > 100 µM (inactive)
GI50 (ACHN): > 100 µM (inactive)
GI50 (EKVX): > 100 µM (inactive)
GI50 (HOP-62): > 100 µM (inactive)
GI50 (HT-29): > 100 µM (inactive)
GI50 (Hs-578T): > 100 µM (inactive)
GI50 (M14): > 100 µM (inactive)
GI50 (MDA-MB-435): > 100 µM (inactive)
GI50 (NCI-H23): > 100 µM (inactive)
GI50 (NCI-H522): 45.7 µM (inactive)
GI50 (OVCAR-5): > 100 µM (inactive)
GI50 (PC-3): > 100 µM (inactive)
GI50 (SF-295): > 100 µM (inactive)
GI50 (SK-OV-3): > 100 µM (inactive)
GI50 (SNB-75): > 100 µM (inactive)
GI50 (TK-10): > 100 µM (inactive)
GI50 (UACC-62): > 100 µM (inactive)

CC(=O)Oc1cccc2c(/C=N/NC(N)=S)ncc(C)c12
GI50 (A498): 7.55 µM (inactive)
GI50 (A549): 3.81 µM (inactive)
GI50 (ACHN): 0.445 µM (active)
GI50 (COLO 205): 3.4 µM (inactive)
GI50 (EKVX): 4.72 µM (inactive)
GI50 (HOP-62): 1.07 µM (active)
GI50 (HT-29): 4.48 µM (inactive)
GI50 (Hs-578T): 20.6 µM (inactive)
GI50 (M14): 0.753 µM (active)
GI50 (MDA-MB-435): 4.29 µM (inactive)
GI50 (NCI-H23): 0.746 µM (active)
GI50 (NCI-H522): 0.705 µM (active)
GI50 (OVCAR-5): 7.35 µM (inactive)
GI50 (PC-3): 1.9 µM (inactive)
GI50 (SF-295): 2.47 µM (inactive)
GI50 (SK-OV-3): 1.46 µM (inactive)
GI50 (SNB-75): 4.03 µM (inactive)
GI50 (TK-10): 7.64 µM (inactive)
GI50 (UACC-62): 1.17 µM (inactive)
GI50 (UO-31): 1.05 µM (active)

CCOC(=O)/C1=C(\C)N(c2ccc(C)cc2)C(=O)c2ccccc2C(=O)c2c(OC(C)=O)ccc(OC(C)=O)c21
GI50 (A498): 67.1 µM (inactive)
GI50 (A549): 26.8 µM (inactive)
GI50 (ACHN): 16.8 µM (inactive)
GI50 (COLO 205): 13.5 µM (inactive)
GI50 (HOP-62): 18.5 µM (inactive)
GI50 (HT-29): 14.6 µM (inactive)
GI50 (Hs-578T): 16.6 µM (inactive)
GI50 (M14): 18.4 µM (inactive)
GI50 (MDA-MB-435): 15.3 µM (inactive)
GI50 (NCI-H23): 19.9 µM (inactive)
GI50 (NCI-H522): 20.7 µM (inactive)
GI50 (OVCAR-5): 21.9 µM (inactive)
GI50 (PC-3): 26.2 µM (inactive)
GI50 (SF-295): 14.5 µM (inactive)
GI50 (SK-OV-3): 17.2 µM (inactive)
GI50 (SNB-75): 25.8 µM (inactive)
GI50 (TK-10): 19.3 µM (inactive)
GI50 (UACC-62): 15 µM (inactive)
GI50 (UO-31): 38.5 µM (inactive)

C=C(C)C(=O)O[C@H]1[C@H]2[C@H](OC(=O)[C@H]2C)[C@H](O)[C@@H](C)[C@@H]2C=CC(=O)[C@]21C
GI50 (A498): 2.69 µM (inactive)
GI50 (A549): 4.16 µM (inactive)
GI50 (ACHN): 4.11 µM (inactive)
GI50 (COLO 205): 3.27 µM (inactive)
GI50 (EKVX): 2.86 µM (inactive)
GI50 (HOP-62): 9.06 µM (inactive)
GI50 (HT-29): 3.33 µM (inactive)
GI50 (Hs-578T): 4.9 µM (inactive)
GI50 (M14): 5.97 µM (inactive)
GI50 (MDA-MB-435): 2.56 µM (inactive)
GI50 (NCI-H23): 3.71 µM (inactive)
GI50 (NCI-H522): 1.2 µM (inactive)
GI50 (OVCAR-5): 8.61 µM (inactive)
GI50 (PC-3): 4.51 µM (inactive)
GI50 (SF-295): 4.63 µM (inactive)
GI50 (SK-OV-3): 5.9 µM (inactive)
GI50 (TK-10): 2.82 µM (inactive)
GI50 (UACC-62): 1.77 µM (inactive)
GI50 (UO-31): 3.94 µM (inactive)

O=C(/C=c1\oc(=O)/c(=C/C(=O)c2ccc(Cl)cc2)oc1=O)c1ccc(Cl)cc1
GI50 (A498): > 100 µM (inactive)
GI50 (A549): > 100 µM (inactive)
GI50 (ACHN): > 100 µM (inactive)
GI50 (COLO 205): > 100 µM (inactive)
GI50 (EKVX): > 100 µM (inactive)
GI50 (HOP-62): > 100 µM (inactive)
GI50 (HT-29): > 100 µM (inactive)
GI50 (Hs-578T): 34.2 µM (inactive)
GI50 (M14): > 100 µM (inactive)
GI50 (MDA-MB-435): > 100 µM (inactive)
GI50 (NCI-H23): > 100 µM (inactive)
GI50 (NCI-H522): 19.7 µM (inactive)
GI50 (OVCAR-5): > 100 µM (inactive)
GI50 (PC-3): > 100 µM (inactive)
GI50 (SF-295): > 100 µM (inactive)
GI50 (SK-OV-3): > 100 µM (inactive)
GI50 (TK-10): > 100 µM (inactive)
GI50 (UACC-62): > 100 µM (inactive)
GI50 (UO-31): > 100 µM (inactive)

Source: ChEMBL document CHEMBL1201862, “PubChem BioAssay data set” (2004)
